Reference: patent publication US6395526B1, “DNA polymerase” (Takara Shuzo Co., Ltd., priority 1995, dated 2002)
“Also recorded” adds a separate entry of the source.

Tests used:
[1] = system: gapped duplex plasmid (pUC118 vector); assay: Accuracy of DNA synthesis reaction (white colony formation); format: biochemical; conditions: 0.5 units DNA polymerase, 70° C. for 10 minutes
Description: The accuracy of DNA synthesis reaction by DNA polymerases was examined using a pUC118 vector (manufactured by Takara Shuzo Co., Ltd.), partially made single stranded (gapped duplex plasmid, as a template. The single stranded pUC118 vector was prepared by the method described in Molecular Cloning: A Laboratory Manual, 2nd ed., 4.44-4.48, published by Cold Spring Harbor Laboratory in 1989, edited by T. Maniatis et al., using a helper phage M13KO7 (manufactured by Takara Shuzo Co., Ltd.) with Escherichia coli MV1184 (manufactured by Takara Shuzo Co., Ltd.) as a host. The double stranded DNA was prepared by digesting the pUC118 vector with PvuII (manufactured by Takara Shuzo Co., Ltd.), subjecting the digested vector to agarose gel electrophoresis, and recovering a DNA fragment of about 2.8 kbp.
One microgram of the above single stranded DNA and 2 μg of the double stranded DNA were mixed to make 180 μl of a mixture with sterile distilled water, and the solution was then incubated at 70° C. for 10 minutes. Thereafter, twenty microliters of 20×SSC was added to the resulting mixture, and the mixture was further kept standing at 60° C. for 10 minutes. The DNA was recovered by subjecting to ethanol precipitation. […] The white or blue colonies formed on the plate were counted, and the formation rate of white colonies which were resulted from a DNA synthesis error was calculated.

[2] = system: activated DNA; assay: Optimum pH and temperature of DNA polymerase activity; format: biochemical, calf; conditions: Tris-HCl in place of potassium phosphate; highest pH level used in the assay
Description: However, because the double stranded structure of the activated DNA used as a substrate for activity assay is destructed at higher temperatures, an accurate optimum temperature for the activity of the above enzyme has not been assayed. […] This level of the heat stability allows the use of the above enzyme for PCR method.
The optimum pH was then assayed. […], and preparing a reaction mixture comprising 20 mM potassium phosphate, 15 mM MgCl2, 2 mM 2-mercaptoethanol, 0.2 mg/ml activated DNA, 40 μM each of dATP, dCTP, dGTP and dTTP, and 60 nM [^3H]-dTTP. The results are shown in FIG. 3, wherein the abscissa indicates the pH, and the ordinate indicates the radioactivity incorporated in high-molecular DNA.

[3] = system: M13-HT Primer; assay: Primer extension reaction (autoradiogram, FIG. 6); format: biochemical; conditions: for inhibition of primer extension by activated DNA as competitor substrate: activated DNA added in great excess
Description: The primer extension activity was further investigated extensively. The M13-HT Primer, previously labeled with [γ-^32P]-ATP (manufactured by Amersham) and T4 polynucleotide kinase (manufactured by Takara Shuzo Co., Ltd.) at the 5′-end, was used as a substrate. Ten microliters of a reaction mixture [20 mM Tris-HCl (pH 7.7), 15 mM MgCl2, 2 mM 2-mercaptoethanol, 270 μM each of dATP, dGTP, dCTP and dTTP] containing the above substrate in a final concentration of […] and various DNA polymerases in amounts providing 0.05 units of activity as assayed with the activated DNA as a substrate was reacted at 75° C. for 1, 2, 3, or 4 minutes. After termination of the reaction, 2 μl of a reaction stop solution (95% […], 20 mM EDTA, 0.05% bromophenol blue, 0.05% xylenecyanol) was added, subjected to thermal denaturation treatment at 95° C. for 3 minutes. Two microliters of the reaction mixture was then subjected to electrophoresis using polyacrylamide gel containing 8 M urea and subsequently subjected to a preparation of autoradiogram. Also, in order to examine the extension activity in the presence of the activated DNA as a competitor substrate, the activated DNA was added to the above reaction mixture to a final concentration of […], and subjected to a preparation of an autoradiogram by the same procedures as described above.
In the figure, Pol, Pfu, and Taq show the results for the DNA polymerase of the present invention, the Pfu DNA polymerase and the Taq DNA polymerase, respectively. In addition, 1, 2, 3, and 4 each indicates reaction time (min). In the figure, the representation “−” and “+” show the results obtained in the absence and in the presence, respectively, of the activated DNA. The lanes G, A, T, and C at the left end of the figure also show the results of electrophoresis of the reaction products obtained by a chain termination reaction by the dideoxy method using the same substrate as above, which were used to estimate the length of each extension product.

[4] = system: activated DNA; assay: Optimum KCl and MgCl2 concentrations for DNA polymerase activity; format: biochemical, calf
Description: For a DNA polymerase preparation forming a complex of the translation products of ORF3 and ORF4 obtained in Example 3, namely the first DNA polymerase-constituting protein and the second DNA polymerase-constituting protein in a ratio at 1:1, optimum MgCl2 and KCl concentrations were firstly assayed. The DNA polymerase activity was assayed in a reaction system containing 20 mM Tris-HCl, pH 7.7, 2 mM 2-mercaptoethanol, 0.2 mg/ml activated DNA, and 40 μM each of dATP, dGTP, dCTP and dTTP in the presence of 2 mM MgCl2, while the KCl concentration was step by step increased from 0 to 200 mM KCl for each 20 mM increment. […] Next, the DNA polymerase activity was assayed in the same reaction system but in the presence of 60 mM KCl in this time, while the MgCl2 concentration was step by step increased from 0.5 to 25 mM MgCl2 for each 2.5 mM increment, to compare at each concentration.

[5] = system: λ-DNA; conditions: reported, enzyme used alone; cited from earlier work

pH of maximum activity [2] | MgCl2 concentration of maximum activity ([4]; in the absence of KCl) | KCl concentration of maximum activity ([4]; in the presence of 2 mM MgCl2, 20 mM Tris-HCl pH 7.7) | MgCl2 concentration of maximum activity ([4]; in the presence of 60 mM KCl) | Substance | white colony formation rate (DNA synthesis error) [1] | primer extension activity ([3]; M13-HT Primer, 75° C., 1-4 min, compared with Pfu and Taq DNA polymerases) | inhibition of primer extension by activated DNA as competitor substrate [3] | strand length of DNA amplifiable by PCR [5]
8.02 | 17.5 mM | 60 mM | 10 mM | DNA Polymerase of the Present Invention: complex of first (ORF3, SEQ ID NO:2) and second (ORF4, SEQ ID NO:4) DNA polymerase-constituting proteins from Pyrococcus furiosus | 1.61% | superior primer extension activity | unlikely to be inhibited; also recorded: inhibited at a low level | –
– | – | – | – | Taq DNA Polymerase: Taq DNA polymerase derived from Thermus aquaticus (TaKaRa Taq, manufactured by Takara Shuzo Co., Ltd.) [reference compound] | 3.18% | – | markedly inhibited; also recorded: strongly inhibited | difficult to amplify a DNA fragment of not less than 10 kbp
